Test results taken from the NIST ThermoML archive (doi:10.1021/je700152c).
Numbers after ± are expanded uncertainties.

Assay: molar heat capacity at saturation pressure

## CCCCn1cc[n+](C)c1.Cc1ccc(S(=O)(=O)[O-])cc1 [1-butyl-3-methylimidazolium tosylate]
5.19 K, Crystal 2
  molar heat capacity: 2.822 ± 0.12 J/K/mol
5.39 K, Crystal 2
  molar heat capacity: 3.132 ± 0.12 J/K/mol
5.69 K, Crystal 2
  molar heat capacity: 3.579 ± 0.14 J/K/mol
5.99 K, Crystal 2
  molar heat capacity: 4.042 ± 0.15 J/K/mol
6.33 K, Crystal 2
  molar heat capacity: 4.588 ± 0.16 J/K/mol
6.71 K, Crystal 2
  molar heat capacity: 5.224 ± 0.18 J/K/mol
7.1 K, Crystal 2
  molar heat capacity: 5.913 ± 0.2 J/K/mol
7.49 K, Crystal 2
  molar heat capacity: 6.618 ± 0.21 J/K/mol
7.88 K, Crystal 2
  molar heat capacity: 7.372 ± 0.23 J/K/mol
8.27 K, Crystal 2
  molar heat capacity: 8.155 ± 0.25 J/K/mol
8.67 K, Crystal 2
  molar heat capacity: 8.98 ± 0.27 J/K/mol
9.06 K, Crystal 2
  molar heat capacity: 9.831 ± 0.29 J/K/mol
9.46 K, Crystal 2
  molar heat capacity: 10.7 ± 0.31 J/K/mol
9.86 K, Crystal 2
  molar heat capacity: 11.58 ± 0.33 J/K/mol
10.37 K, Crystal 2
  molar heat capacity: 12.77 ± 0.35 J/K/mol
10.99 K, Crystal 2
  molar heat capacity: 14.2 ± 0.38 J/K/mol
11.62 K, Crystal 2
  molar heat capacity: 15.75 ± 0.41 J/K/mol
12.24 K, Crystal 2
  molar heat capacity: 17.23 ± 0.44 J/K/mol
12.87 K, Crystal 2
  molar heat capacity: 18.81 ± 0.47 J/K/mol
13.5 K, Crystal 2
  molar heat capacity: 20.4 ± 0.5 J/K/mol
14.13 K, Crystal 2
  molar heat capacity: 22.01 ± 0.53 J/K/mol
14.77 K, Crystal 2
  molar heat capacity: 23.69 ± 0.56 J/K/mol
15.52 K, Crystal 2
  molar heat capacity: 25.71 ± 0.59 J/K/mol
16.38 K, Crystal 2
  molar heat capacity: 28.11 ± 0.62 J/K/mol
17.25 K, Crystal 2
  molar heat capacity: 30.43 ± 0.65 J/K/mol
18.11 K, Crystal 2
  molar heat capacity: 32.69 ± 0.68 J/K/mol
18.98 K, Crystal 2
  molar heat capacity: 34.95 ± 0.71 J/K/mol
19.85 K, Crystal 2
  molar heat capacity: 37.28 ± 0.74 J/K/mol
21.02 K, Crystal 2
  molar heat capacity: 40.42 ± 0.78 J/K/mol
22.47 K, Crystal 2
  molar heat capacity: 44.36 ± 0.81 J/K/mol
23.94 K, Crystal 2
  molar heat capacity: 48.42 ± 0.84 J/K/mol
25.4 K, Crystal 2
  molar heat capacity: 52.37 ± 0.87 J/K/mol
26.86 K, Crystal 2
  molar heat capacity: 56.28 ± 0.93 J/K/mol
27.91 K, Crystal 2
  molar heat capacity: 59.01 ± 0.93 J/K/mol
29.13 K, Crystal 2
  molar heat capacity: 62.18 ± 0.93 J/K/mol
30.61 K, Crystal 2
  molar heat capacity: 65.96 ± 0.81 J/K/mol
32.24 K, Crystal 2
  molar heat capacity: 70.12 ± 0.87 J/K/mol
34.04 K, Crystal 2
  molar heat capacity: 74.47 ± 0.93 J/K/mol
35.85 K, Crystal 2
  molar heat capacity: 78.78 ± 0.96 J/K/mol
37.65 K, Crystal 2
  molar heat capacity: 82.79 ± 0.99 J/K/mol
39.46 K, Crystal 2
  molar heat capacity: 86.82 ± 1.1 J/K/mol
41.36 K, Crystal 2
  molar heat capacity: 90.86 ± 1.1 J/K/mol
43.36 K, Crystal 2
  molar heat capacity: 95.05 ± 1.1 J/K/mol
45.37 K, Crystal 2
  molar heat capacity: 99.18 ± 1.2 J/K/mol
47.37 K, Crystal 2
  molar heat capacity: 103.21 ± 1.2 J/K/mol
49.38 K, Crystal 2
  molar heat capacity: 107.12 ± 1.2 J/K/mol
51.39 K, Crystal 2
  molar heat capacity: 110.88 ± 1.3 J/K/mol
53.4 K, Crystal 2
  molar heat capacity: 114.57 ± 1.3 J/K/mol
55.41 K, Crystal 2
  molar heat capacity: 118.11 ± 1.4 J/K/mol
57.43 K, Crystal 2
  molar heat capacity: 121.56 ± 1.4 J/K/mol
59.46 K, Crystal 2
  molar heat capacity: 124.97 ± 1.5 J/K/mol
61.48 K, Crystal 2
  molar heat capacity: 128.2 ± 1.5 J/K/mol
63.5 K, Crystal 2
  molar heat capacity: 131.49 ± 1.5 J/K/mol
65.48 K, Crystal 2
  molar heat capacity: 134.6 ± 1.6 J/K/mol
67.5 K, Crystal 2
  molar heat capacity: 137.79 ± 1.6 J/K/mol
69.52 K, Crystal 2
  molar heat capacity: 140.83 ± 1.6 J/K/mol
71.55 K, Crystal 2
  molar heat capacity: 143.85 ± 1.6 J/K/mol
73.58 K, Crystal 2
  molar heat capacity: 146.89 ± 1.7 J/K/mol
75.61 K, Crystal 2
  molar heat capacity: 149.84 ± 1.7 J/K/mol
77.64 K, Crystal 2
  molar heat capacity: 152.66 ± 1.7 J/K/mol
78.3 K, Crystal 2
  molar heat capacity: 153.84 ± 1.7 J/K/mol
78.41 K, Crystal 2
  molar heat capacity: 154.03 ± 1.8 J/K/mol
78.68 K, Metastable crystal
  molar heat capacity: 155.18 ± 1.8 J/K/mol
79.68 K, Crystal 2
  molar heat capacity: 155.55 ± 1.8 J/K/mol
80.29 K, Crystal 2
  molar heat capacity: 156.42 ± 1.8 J/K/mol
80.4 K, Crystal 2
  molar heat capacity: 156.6 ± 1.8 J/K/mol
80.63 K, Crystal 2
  molar heat capacity: 156.82 ± 1.8 J/K/mol
80.67 K, Metastable crystal
  molar heat capacity: 157.91 ± 1.8 J/K/mol
81.72 K, Crystal 2
  molar heat capacity: 158.34 ± 1.8 J/K/mol
82.14 K, Crystal 2
  molar heat capacity: 158.9 ± 1.8 J/K/mol
82.25 K, Crystal 2
  molar heat capacity: 158.9 ± 1.8 J/K/mol
82.53 K, Metastable crystal
  molar heat capacity: 160.36 ± 1.8 J/K/mol
82.63 K, Crystal 2
  molar heat capacity: 159.37 ± 1.8 J/K/mol
83.76 K, Crystal 2
  molar heat capacity: 161.26 ± 1.8 J/K/mol
84.01 K, Crystal 2
  molar heat capacity: 161.35 ± 1.8 J/K/mol
84.11 K, Crystal 2
  molar heat capacity: 161.51 ± 1.8 J/K/mol
84.39 K, Metastable crystal
  molar heat capacity: 163.15 ± 1.9 J/K/mol
84.49 K, Crystal 2
  molar heat capacity: 161.88 ± 1.8 J/K/mol
85.88 K, Crystal 2
  molar heat capacity: 163.77 ± 1.9 J/K/mol
85.98 K, Crystal 2
  molar heat capacity: 164.02 ± 1.9 J/K/mol
86.26 K, Metastable crystal
  molar heat capacity: 165.85 ± 1.9 J/K/mol
86.36 K, Crystal 2
  molar heat capacity: 164.39 ± 1.9 J/K/mol
87.76 K, Crystal 2
  molar heat capacity: 166.29 ± 1.9 J/K/mol
87.86 K, Crystal 2
  molar heat capacity: 166.47 ± 1.9 J/K/mol
88.14 K, Metastable crystal
  molar heat capacity: 168.4 ± 1.9 J/K/mol
88.24 K, Crystal 2
  molar heat capacity: 166.85 ± 1.9 J/K/mol
89.65 K, Crystal 2
  molar heat capacity: 168.77 ± 1.9 J/K/mol
89.74 K, Crystal 2
  molar heat capacity: 168.83 ± 1.9 J/K/mol
90.02 K, Metastable crystal
  molar heat capacity: 171.1 ± 1.9 J/K/mol
90.12 K, Crystal 2
  molar heat capacity: 169.39 ± 1.9 J/K/mol
91.54 K, Crystal 2
  molar heat capacity: 171.25 ± 1.9 J/K/mol
91.63 K, Crystal 2
  molar heat capacity: 171.32 ± 1.9 J/K/mol
91.92 K, Metastable crystal
  molar heat capacity: 173.77 ± 1.9 J/K/mol
92.02 K, Crystal 2
  molar heat capacity: 171.84 ± 1.9 J/K/mol
93.45 K, Crystal 2
  molar heat capacity: 173.71 ± 1.9 J/K/mol
93.54 K, Crystal 2
  molar heat capacity: 173.8 ± 1.9 J/K/mol
93.82 K, Metastable crystal
  molar heat capacity: 176.53 ± 1.9 J/K/mol
93.92 K, Crystal 2
  molar heat capacity: 174.27 ± 1.9 J/K/mol
95.36 K, Crystal 2
  molar heat capacity: 176.16 ± 1.9 J/K/mol
95.45 K, Crystal 2
  molar heat capacity: 176.25 ± 1.9 J/K/mol
95.72 K, Metastable crystal
  molar heat capacity: 179.17 ± 2 J/K/mol
95.83 K, Crystal 2
  molar heat capacity: 176.69 ± 1.9 J/K/mol
97.28 K, Crystal 2
  molar heat capacity: 178.64 ± 2 J/K/mol
97.37 K, Crystal 2
  molar heat capacity: 178.7 ± 2 J/K/mol
97.64 K, Metastable crystal
  molar heat capacity: 181.78 ± 2 J/K/mol
97.75 K, Crystal 2
  molar heat capacity: 179.08 ± 2 J/K/mol
99.21 K, Crystal 2
  molar heat capacity: 181.03 ± 2 J/K/mol
99.29 K, Crystal 2
  molar heat capacity: 181.06 ± 2 J/K/mol
99.55 K, Metastable crystal
  molar heat capacity: 184.48 ± 2 J/K/mol
99.67 K, Crystal 2
  molar heat capacity: 181.44 ± 2 J/K/mol
101.08 K, Crystal 2
  molar heat capacity: 183.3 ± 2 J/K/mol
101.16 K, Crystal 2
  molar heat capacity: 183.36 ± 2 J/K/mol
101.42 K, Metastable crystal
  molar heat capacity: 187.02 ± 2 J/K/mol
101.54 K, Crystal 2
  molar heat capacity: 183.8 ± 2 J/K/mol
102.89 K, Crystal 2
  molar heat capacity: 185.56 ± 2 J/K/mol
102.98 K, Crystal 2
  molar heat capacity: 185.56 ± 2 J/K/mol
103.22 K, Metastable crystal
  molar heat capacity: 189.6 ± 2 J/K/mol
103.36 K, Crystal 2
  molar heat capacity: 186.06 ± 2 J/K/mol
104.71 K, Crystal 2
  molar heat capacity: 187.86 ± 2 J/K/mol
104.79 K, Crystal 2
  molar heat capacity: 187.86 ± 2 J/K/mol
105.03 K, Metastable crystal
  molar heat capacity: 192.05 ± 2.1 J/K/mol
105.18 K, Crystal 2
  molar heat capacity: 188.27 ± 2 J/K/mol
106.53 K, Crystal 2
  molar heat capacity: 190.03 ± 2.1 J/K/mol
106.61 K, Crystal 2
  molar heat capacity: 190.07 ± 2.1 J/K/mol
106.84 K, Metastable crystal
  molar heat capacity: 194.54 ± 2.1 J/K/mol
107 K, Crystal 2
  molar heat capacity: 190.5 ± 2.1 J/K/mol
108.37 K, Crystal 2
  molar heat capacity: 192.21 ± 2.1 J/K/mol
108.44 K, Crystal 2
  molar heat capacity: 192.24 ± 2.1 J/K/mol
108.66 K, Metastable crystal
  molar heat capacity: 197.08 ± 2.1 J/K/mol
108.83 K, Crystal 2
  molar heat capacity: 192.7 ± 2.1 J/K/mol
110.2 K, Crystal 2
  molar heat capacity: 194.41 ± 2.1 J/K/mol
110.27 K, Crystal 2
  molar heat capacity: 194.41 ± 2.1 J/K/mol
110.48 K, Metastable crystal
  molar heat capacity: 199.56 ± 2.2 J/K/mol
110.67 K, Crystal 2
  molar heat capacity: 194.88 ± 2.1 J/K/mol
112.03 K, Crystal 2
  molar heat capacity: 196.58 ± 2.1 J/K/mol
112.1 K, Crystal 2
  molar heat capacity: 196.52 ± 2.1 J/K/mol
112.31 K, Metastable crystal
  molar heat capacity: 201.92 ± 2.2 J/K/mol
112.5 K, Crystal 2
  molar heat capacity: 197.14 ± 2.1 J/K/mol
113.87 K, Crystal 2
  molar heat capacity: 198.73 ± 2.1 J/K/mol
113.94 K, Crystal 2
  molar heat capacity: 198.82 ± 2.1 J/K/mol
114.13 K, Metastable crystal
  molar heat capacity: 204.5 ± 2.2 J/K/mol
114.34 K, Crystal 2
  molar heat capacity: 199.29 ± 2.1 J/K/mol
115.71 K, Crystal 2
  molar heat capacity: 200.99 ± 2.2 J/K/mol
115.78 K, Crystal 2
  molar heat capacity: 201.09 ± 2.2 J/K/mol
115.96 K, Metastable crystal
  molar heat capacity: 207.01 ± 2.2 J/K/mol
116.18 K, Crystal 2
  molar heat capacity: 201.52 ± 2.2 J/K/mol
117.56 K, Crystal 2
  molar heat capacity: 203.23 ± 2.2 J/K/mol
117.62 K, Crystal 2
  molar heat capacity: 203.17 ± 2.2 J/K/mol
117.79 K, Metastable crystal
  molar heat capacity: 209.47 ± 2.3 J/K/mol
118.02 K, Crystal 2
  molar heat capacity: 203.66 ± 2.2 J/K/mol
119.41 K, Crystal 2
  molar heat capacity: 205.4 ± 2.2 J/K/mol
119.46 K, Crystal 2
  molar heat capacity: 205.31 ± 2.2 J/K/mol
119.62 K, Metastable crystal
  molar heat capacity: 212.17 ± 2.3 J/K/mol
119.87 K, Crystal 2
  molar heat capacity: 205.87 ± 2.2 J/K/mol
121.26 K, Crystal 2
  molar heat capacity: 207.48 ± 2.2 J/K/mol
121.3 K, Crystal 2
  molar heat capacity: 207.51 ± 2.2 J/K/mol
121.45 K, Metastable crystal
  molar heat capacity: 214.65 ± 2.3 J/K/mol
121.71 K, Crystal 2
  molar heat capacity: 208.04 ± 2.2 J/K/mol
123.11 K, Crystal 2
  molar heat capacity: 209.71 ± 2.3 J/K/mol
123.16 K, Crystal 2
  molar heat capacity: 209.78 ± 2.3 J/K/mol
123.28 K, Metastable crystal
  molar heat capacity: 217.2 ± 2.3 J/K/mol
123.56 K, Crystal 2
  molar heat capacity: 210.24 ± 2.3 J/K/mol
124.97 K, Crystal 2
  molar heat capacity: 211.95 ± 2.3 J/K/mol
